Experimental data from publication PMC11149917, “Translational and Therapeutic Evaluation of RAS-GTP Inhibition by RMC-6236 in RAS-Driven Cancers” (Cancer Discovery, 2024).

Legend:
[1] = system: LU99-Luc (KRAS^G12C/WT, NSCLC) intracranial xenograft; experiment: Intracranial tumor model (bioluminescence); format: in vivo, mouse; settings: 25 mg/kg daily oral, 21 days
Excerpt: (§1) LU99 cells (JCRB0080) were stably modified with lentivirus-based pHBLV-CMV-MCS-EF1-fLuc-T2A-puro vector to generate luciferase-expressing LU99-Luc cells. NCI-H1373 cells (ATCC CRL-5866) were stably modified with lentivirus-based pHBLV-CMV-MCS-EF1-fluc-T2A-PURO vector to generate luciferase-expressing NCI-H1373-Luc cells. The eCT26 Kras^G12C^/G12CAbcb1^−^/^− (clone I20) and eCT26 Kras^G12D^/G12DAbcb1^−^/^− (clone I12) cell lines were engineered from the murine CT26 homozygous Kras^G12D tumor cell line (ATCC CRL-2638). All Kras^G12D alleles were replaced with Kras^G12C using CRISPR technology at Synthego. Additionally, the P-glycoprotein drug transporter, Abcb1a and Abcb1b, were knocked out using CRISPR guide sequences […] and […], respectively. The homozygous G12C mutation and the Abcb1 knockout were confirmed by Sanger sequencing in the clone selected and were used for in vivo experiments.
(§2) NCI-H1373-Luc cells (3 × 10^5) were prepared in 3 µL sterile PBS with 20% Matrigel. Each mouse was anesthetized by intraperitoneal (ip) injection of sterile avertin (250 mg/kg) and positioned on the stereotaxic unit. Cells were intracranially injected over 2 minutes at the site 2 mm lateral (right), 0.5 mm anterior, and 3 mm ventral with respect to the bregma. […] The bioluminescence and animal weights were measured and recorded once and twice per week, respectively. […]

[2] = system: NCI-H1373-Luc intracranial xenograft; experiment: Intracranial tumor model (bioluminescence); format: in vivo, mouse; settings: 25 mg/kg daily oral, 28 days
Excerpt: as §1, §2

[3] = system: caspase-3/7 in panel of 78 cancer cell lines; experiment: Cell panel CaspaseGlo-3/7 apoptosis induction; format: cell-based, human
Method: A panel of 78 cancer cell lines harboring mutant and wild-type RAS was selected for screening at Crown Bioscience (Supplementary Table S2). The panel consisted of cell lines with any substitution at position 12 of KRAS, cell lines with any substitutions at position 61 of NRAS, and cell lines with a BRAF^V600E mutation. […] Cells were incubated for 120 hours prior to measurement of adenosine triphosphate (ATP) levels using the CellTiter-Glo Luminescent Cell Viability Assay (CTG; Promega, G7572), a method of determining the number of metabolically active cells based on quantitation of cellular ATP, according to the manufacturer's instructions. To measure induction of apoptosis, cells were incubated with RMC-6236 for 48 hours prior to measuring cleavage of a proluminescent caspase-3/7 DEVD-aminoluciferin substrate using the CaspaseGlo-3/7 Assay (Promega, G8092) according to the manufacturer’s instructions.

[4] = target: wild-type HRAS (Homo sapiens, UniProt P01112+P62937); experiment: RAS-RAF TR-FRET; format: biochemical; settings: 25 µmol/L CypA, read-out: EC50, disruption of RAF-RBD binding
wild-type HRAS, sequence (P01112 1-169): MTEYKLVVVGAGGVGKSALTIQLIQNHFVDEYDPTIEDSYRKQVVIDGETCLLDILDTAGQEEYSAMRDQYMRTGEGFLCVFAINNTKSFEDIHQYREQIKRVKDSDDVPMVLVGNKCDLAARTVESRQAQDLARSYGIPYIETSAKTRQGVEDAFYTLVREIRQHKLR
wild-type HRAS, sequence (P62937 whole entry): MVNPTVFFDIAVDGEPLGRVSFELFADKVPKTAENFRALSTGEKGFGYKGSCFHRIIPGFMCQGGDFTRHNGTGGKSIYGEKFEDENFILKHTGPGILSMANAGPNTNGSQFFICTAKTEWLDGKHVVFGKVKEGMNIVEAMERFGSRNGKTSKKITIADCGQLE

CCn1c(-c2cc(N3CCN(C)CC3)cnc2[C@H](C)OC)c2c3cc(ccc31)-c1csc(n1)C[C@H](NC(=O)[C@H]1C[C@@H]1C)C(=O)N1CCC[C@H](N1)C(=O)OCC(C)(C)C2 [RMC-6236]
tumor response by bioluminescent signal [1]: tumor regressions
tumor response by bioluminescent signal [2]: tumor regressions
Caspase-3/7 Activation (EC200, nM) ([3]; A375, BRAF V600E, Skin): >100 nM
Caspase-3/7 Activation (EC200, nM) ([3]; A427, KRAS G12D, Lung): >100 nM
Caspase-3/7 Activation (EC200, nM) ([3]; A549, KRAS G12S, Lung): >100 nM
Caspase-3/7 Activation (EC200, nM) ([3]; AGS, KRAS G12D, Stomach): >100 nM
Caspase-3/7 Activation (EC200, nM) ([3]; ASH3, NRAS Q61R, Head and Neck/Thyroid): >100 nM
Caspase-3/7 Activation (EC200, nM) ([3]; ASPC1, KRAS G12D, Pancreas): >100 nM
Caspase-3/7 Activation (EC200, nM) ([3]; CAL62, KRAS G12R, Head and Neck/Thyroid): 39.7 nM
Caspase-3/7 Activation (EC200, nM) ([3]; CALU1, KRAS G12C, Lung): 5.2 nM
Caspase-3/7 Activation (EC200, nM) ([3]; CAPAN1, KRAS G12V, Pancreas): >100 nM
Caspase-3/7 Activation (EC200, nM) ([3]; CAPAN2, KRAS G12V, Pancreas): >100 nM
Caspase-3/7 Activation (EC200, nM) ([3]; CFPAC1, KRAS G12V, Pancreas): 20.2 nM
Caspase-3/7 Activation (EC200, nM) ([3]; CHP212, NRAS Q61K, Brain and Nerves): >100 nM
Caspase-3/7 Activation (EC200, nM) ([3]; COC1, KRAS G12D, Ovary): >100 nM
Caspase-3/7 Activation (EC200, nM) ([3]; COLO201, BRAF V600E, Intestine/Large/Colorectum): >100 nM
Caspase-3/7 Activation (EC200, nM) ([3]; CORL23, KRAS G12V, Lung): 32.2 nM
Caspase-3/7 Activation (EC200, nM) ([3]; HCC15, NRAS Q61K, Lung): >100 nM
Caspase-3/7 Activation (EC200, nM) ([3]; HCC44, KRAS G12C, Lung): >100 nM
Caspase-3/7 Activation (EC200, nM) ([3]; HEC1A, KRAS G12D, Uterus): >100 nM
Caspase-3/7 Activation (EC200, nM) ([3]; HEPG2, NRAS Q61L, Liver): 27.1 nM
Caspase-3/7 Activation (EC200, nM) ([3]; HM7, KRAS G12D, Intestine/Large/Colorectum): >100 nM
Caspase-3/7 Activation (EC200, nM) ([3]; HPAC, KRAS G12D, Pancreas): >100 nM
Caspase-3/7 Activation (EC200, nM) ([3]; HPAFII, KRAS G12D, Pancreas): 29.6 nM
Caspase-3/7 Activation (EC200, nM) ([3]; HT1080, NRAS Q61K, Soft tissue): 59.6 nM
Caspase-3/7 Activation (EC200, nM) ([3]; HUCCT1, KRAS G12D, Liver/Bile duct): 46.2 nM
Caspase-3/7 Activation (EC200, nM) ([3]; HUPT4, KRAS G12V, Pancreas): >100 nM
Caspase-3/7 Activation (EC200, nM) ([3]; KP4, KRAS G12D, Pancreas): >100 nM
cell lines exhibiting at least a 2-fold increase in caspase activation ([3]; KRAS^G12X and NRAS^Q61X cell lines): 40%
cell lines exhibiting at least a 2-fold increase in caspase activation ([3]; KRAS^G12X cell lines): 28 out of 62
Caspase-3/7 Activation (EC200, nM) ([3]; KYSE410, KRAS G12C, HN/Esophagus): 19.5 nM
Caspase-3/7 Activation (EC200, nM) ([3]; LCLC97TM1, KRAS G12V, Lung): 36.9 nM
Caspase-3/7 Activation (EC200, nM) ([3]; LS123, KRAS G12S, Intestine/Large/Colorectum): >100 nM
Caspase-3/7 Activation (EC200, nM) ([3]; LS174T, KRAS G12D, Intestine/Large/Colorectum): >100 nM
Caspase-3/7 Activation (EC200, nM) ([3]; LS180, KRAS G12D, Intestine/Large/Colorectum): >100 nM
Caspase-3/7 Activation (EC200, nM) ([3]; LS513, KRAS G12D, Intestine/Large/Colorectum): 11.0 nM
Caspase-3/7 Activation (EC200, nM) ([3]; MIAPACA2, KRAS G12C, Pancreas): >100 nM
Caspase-3/7 Activation (EC200, nM) ([3]; NCIH23, KRAS G12C, Lung): >100 nM
Caspase-3/7 Activation (EC200, nM) ([3]; NCIH358, KRAS G12C, Lung): 29.7 nM
Caspase-3/7 Activation (EC200, nM) ([3]; NCIH441, KRAS G12V, Lung): >100 nM
Caspase-3/7 Activation (EC200, nM) ([3]; NCIH727, KRAS G12V, Lung): 11.9 nM
Caspase-3/7 Activation (EC200, nM) ([3]; NCIH1299, NRAS Q61K, Lung): >100 nM
Caspase-3/7 Activation (EC200, nM) ([3]; NCIH1373, KRAS G12C, Lung): 79.6 nM
Caspase-3/7 Activation (EC200, nM) ([3]; NCIH1792, KRAS G12C, Lung): 6.6 nM
Caspase-3/7 Activation (EC200, nM) ([3]; NCIH2009, KRAS G12A, Lung): 90.2 nM
Caspase-3/7 Activation (EC200, nM) ([3]; NCIH2087, NRAS Q61K, Lung): 5.1 nM
Caspase-3/7 Activation (EC200, nM) ([3]; NCIH2122, KRAS G12C, Lung): 57.5 nM
Caspase-3/7 Activation (EC200, nM) ([3]; NOZ, KRAS G12V, Liver/Bile duct): 23.6 nM
cell lines exhibiting at least a 2-fold increase in caspase activation ([3]; NRAS^Q61X cell lines): 5 out of 13
Caspase-3/7 Activation (EC200, nM) ([3]; OVCAR5, KRAS G12V, Ovary): 2.4 nM
Caspase-3/7 Activation (EC200, nM) ([3]; PANC1, KRAS G12D, Pancreas): >100 nM
Caspase-3/7 Activation (EC200, nM) ([3]; PANC0327, KRAS G12V, Pancreas): >100 nM
Caspase-3/7 Activation (EC200, nM) ([3]; PANC0504, KRAS G12D, Pancreas): 4.8 nM
Caspase-3/7 Activation (EC200, nM) ([3]; PANC1005, KRAS G12D, Pancreas): 25.2 nM
Caspase-3/7 Activation (EC200, nM) ([3]; PL45, KRAS G12D, Pancreas): 83.1 nM
Caspase-3/7 Activation (EC200, nM) ([3]; RBE, KRAS G12V, Liver/Bile duct): >100 nM
Caspase-3/7 Activation (EC200, nM) ([3]; RKO*, BRAF V600E, Intestine/Large/Colorectum): >100 nM
Caspase-3/7 Activation (EC200, nM) ([3]; SHP77, KRAS G12V, Lung): >100 nM
Caspase-3/7 Activation (EC200, nM) ([3]; SKCO1, KRAS G12V, Intestine/Large/Colorectum): 9.0 nM
Caspase-3/7 Activation (EC200, nM) ([3]; SKLU1, KRAS G12D, Lung): 29.7 nM
Caspase-3/7 Activation (EC200, nM) ([3]; SKMEL2, NRAS Q61R, Skin): 26.0 nM
Caspase-3/7 Activation (EC200, nM) ([3]; SKNAS, NRAS Q61K, Brain and Nerves): >100 nM
Caspase-3/7 Activation (EC200, nM) ([3]; SKNSH, NRAS Q61K, Brain and Nerves): >100 nM
Caspase-3/7 Activation (EC200, nM) ([3]; SNU1, KRAS G12D, Stomach): >100 nM
Caspase-3/7 Activation (EC200, nM) ([3]; SNU387, NRAS Q61K, Liver): >100 nM
Caspase-3/7 Activation (EC200, nM) ([3]; SNU601, KRAS G12D, Stomach): 73.1 nM
Caspase-3/7 Activation (EC200, nM) ([3]; SNU719, NRAS Q61L, Stomach): 57.7 nM
Caspase-3/7 Activation (EC200, nM) ([3]; SNUC2A, KRAS G12D, Intestine/Large/Colorectum): >100 nM
Caspase-3/7 Activation (EC200, nM) ([3]; SU8686, KRAS G12D, Pancreas): 61.9 nM
Caspase-3/7 Activation (EC200, nM) ([3]; SW403, KRAS G12V, Intestine/Large/Colorectum): >100 nM
Caspase-3/7 Activation (EC200, nM) ([3]; SW480, KRAS G12V, Intestine/Large/Colorectum): >100 nM
Caspase-3/7 Activation (EC200, nM) ([3]; SW620, KRAS G12V, Intestine/Large/Colorectum): >100 nM
Caspase-3/7 Activation (EC200, nM) ([3]; SW626, KRAS G12V, Ovary): >100 nM
Caspase-3/7 Activation (EC200, nM) ([3]; SW756, KRAS G12C, Ovary): >100 nM
Caspase-3/7 Activation (EC200, nM) ([3]; SW837, KRAS G12C, Intestine/Large/Colorectum): >100 nM
Caspase-3/7 Activation (EC200, nM) ([3]; SW900, KRAS G12V, Lung): 3.2 nM
Caspase-3/7 Activation (EC200, nM) ([3]; SW1116, KRAS G12A, Intestine/Large/Colorectum): >100 nM
Caspase-3/7 Activation (EC200, nM) ([3]; SW1271, NRAS Q61R, Lung): >100 nM
Caspase-3/7 Activation (EC200, nM) ([3]; SW1463, KRAS G12C, Intestine/Large/Colorectum): 28.5 nM
Caspase-3/7 Activation (EC200, nM) ([3]; SW1573, KRAS G12C, Lung): >100 nM
Caspase-3/7 Activation (EC200, nM) ([3]; SW1990, KRAS G12D, Pancreas): 97.1 nM
Caspase-3/7 Activation (EC200, nM) ([3]; UMUC3, KRAS G12C, Bladder): 99.8 nM
Caspase-3/7 Activation (EC200, nM) ([3]; YCC2, KRAS G12S, Stomach): >100 nM
EC50 [4]: 82 nM
